Literature values in patent US8603436B2, “Methods and compositions for targeted drug delivery” (priority 2000, dated 2013).
Where two headings read alike, the source gives them in different places. Values belong to the compound of their own block, whether it stands above or below them. Square brackets hold non-standard residues; d marks the D form. Peptide text beside a SMILES is read from it. * marks the point of attachment. X1 = NCCCC[C@H](NC(=O)[C@H](CS)NC(=O)[C@H](CCCCN)NC(=O)[C@@H](N)CNC(=O)C*)C(N)=O; NMeF = CN[C@@H](Cc1ccccc1)C(=O)O; hCys = N[C@@H](CCS)C(=O)O

Tests used:
glioblastoma cells = settings: in vitro
tumor [1] = settings: tumor models and individual patients
[2] = tested on: ssr subtypes present in rat pancreas carcinoma membranes; settings: free (unlabeled) peptide
tumor [3] = settings: in vivo

concentration in lysosomes relative to cytosolic concentration (glioblastoma cells): 100 fold lower | concentration in microsomes relative to cytosolic concentration (glioblastoma cells): 125 fold lower | concentration in nuclei relative to cytosolic concentration (glioblastoma cells): 80 fold lower | time to maximum uptake into whole glioblastoma cells (glioblastoma cells): 1 h | cytosolic concentration (glioblastoma cells; at maximum uptake): 250 ng per million of glioma cells | tumor enrichment factor (tumor [1]): ≤ 3
Compound: N[C@@H](Cc1ccc(B(O)O)cc1)C(=O)O [BPA, p-boronophenylalanine]

Compound: CC(C)[C@@H]1NC(=O)[C@H](CCCCN)NC(=O)[C@@H](Cc2c[nH]c3ccccc23)NC(=O)[C@H](Cc2ccc(O)cc2)NC(=O)[C@H](Cc2ccccc2)N(C)C(=O)[C@H](CCSCC(=O)NC[C@H](N)C(=O)N[C@@H](CCCCN)C(=O)N[C@@H](CS)C(=O)N[C@@H](CCCCN)C(N)=O)NC1=O [depreotide] (cyclo([hCys](X1)[NMeF]Y[dW]KV))
apparent affinity of the free peptide compared with octreotide [2]: one order of magnitude lower

tumor enrichment factor (tumor [3]): ~100
Compound: beta-5-o-carboranyl-2′-deoxyuridine [D-CDU]

Compound: boronated protoporphyrin [BOPP]
subcellular accumulation (lysosomes): accumulate in lysosomes, but not in mitochondria or the nucleus
